Laboratory results taken from patent EP3696177A1, “HETEROCYCLIC COMPOUNDS FOR THE CONTROL OF INVERTEBRATE PESTS” (BASF SE, priority 2019, dated 2020).

Key:
Format in all cases: in vivo
dichromothrips corbetti = test: Orchid thrips floral-immersion test; details: 72 h, read-out: mortality in comparison with untreated controls
Protocol: Dichromothrips corbetti adults used for bioassay are obtained from a colony maintained continu-ously under laboratory conditions. For testing purposes, the test compound is diluted in a 1:1 mix-ture of acetone:water (vol:vol), plus Kinetic at a rate of 0.01% v/v.
Thrips potency of each compound is evaluated by using a floral-immersion technique. Each orchid petal is dipped into treatment solution and allowed to dry in Petri dishes. Treated petals are placed into individual re-sealable plastic along with about 20 adult thrips. All test arenas are held under dark condition and a temperature of about 28°C for duration of the assay. The percent mor-tality is recorded 72 hours after treatment.

Aedes aegypti = test: whole plant or invertebrate; details: 48 h, A. aegypti larvae, incubated 2 days, read-out: mortality in comparison with untreated controls (larval mortality)
Protocol: For evaluating control of yellow fever mosquito (Aedes aegypti) the test unit consisted of 96-well-microtiter plates containing 200µl of tap water per well and 5-15 freshly hatched A. aegypti larvae.
The active compounds were formulated using a solution containing 75% (v/v) water and 25% (v/v) DMSO. Different concentrations of formulated compounds or mixtures were sprayed onto the insect diet at 2.5µl, using a custom built micro atomizer, at two replications.
After application, microtiter plates were incubated at 28 + 1°C, 80 + 5 % RH for 2 days. Larval mortality was then visually assessed.

Myzus persicae = test: Green peach aphid (Myzus persicae) artificial diet/membrane systemic test; details: 72 h, read-out: mortality in comparison with untreated controls
Text: For evaluating control of green peach aphid (Myzus persicae) through systemic means the test unit consisted of 96-well-microtiter plates containing liquid artificial diet under an artificial membrane.
The compounds were formulated using a solution containing 75% v/v water and 25% v/v DMSO. Different concentrations of formulated compounds were pipetted into the aphid diet, using a cus-tom built pipetter, at two replications.
After application, 5 - 8 adult aphids were placed on the artificial membrane inside the microtiter plate wells. The aphids were then allowed to suck on the treated aphid diet and incubated at about 23 + 1°C and about 50 + 5 % relative humidity for 3 days. Aphid mortality and fecundity was then visually assessed.

Plutella xylostella = test: Diamond back moth (Plutella xylostella) cabbage leaf disc dip test; details: foliar, 72 h, read-out: mortality in comparison with untreated controls
Protocol: The active compound is dissolved at the desired concentration in a mixture of 1:1 (vol:vol) distilled water: acetone. Surfactant (Kinetic) is added at a rate of 0.01% (vol/vol). The test solution is pre-pared at the day of use.
Cabbage leaf discs (60mm in diameter) are dipped in test solution and air-dried. Treated leaves are placed in petri dishes lined with moistened filter paper and inoculated with ten 3rd instar larvae. Mortality is recorded 72 hours after treatment. Feeding damage is also recorded using a scale of 0-100%.

Megoura viciae = test: Vetch aphid (Megoura viciae) broad bean leaf disk test; details: foliar, 120 h, read-out: mortality in comparison with untreated controls
Protocol: For evaluating control of vetch aphid (Megoura viciae) through contact or systemic means the test unit consisted of 24-well-microtiter plates containing broad bean leaf disks.
The compounds were formulated using a solution containing 75% v/v water and 25% v/v DMSO. Different concentrations of formulated compounds were sprayed onto the leaf disks at 2.5 µl, us-ing a custom built micro atomizer, at two replications.
After application, the leaf disks were air-dried and 5 - 8 adult aphids placed on the leaf disks in-side the microtiter plate wells. The aphids were then allowed to suck on the treated leaf disks and incubated at about 23 + 1°C and about 50 + 5 % relative humidity for 5 days. Aphid mortality and fecundity was then visually assessed.

Heliothis virescens = test: Tobacco budworm (Heliothis virescens) insect diet microtiter plate test; details: 120 h, read-out: mortality in comparison with untreated controls (egg and larval mortality)
Protocol: For evaluating control of tobacco budworm (Heliothis virescens) the test unit consisted of 96-well-microtiter plates containing an insect diet and 15-25 H. virescens eggs.
The compounds were formulated using a solution containing 75% v/v water and 25% v/v DMSO. Different concentrations of formulated compounds were sprayed onto the insect diet at 10 µl, us-ing a custom built micro atomizer, at two replications.
After application, microtiter plates were incubated at about 28 + 1°C and about 80 + 5 % relative humidity for 5 days. Egg and larval mortality was then visually assessed.

Anthonomus grandis = test: Boll weevil (Anthonomus grandis) insect diet microtiter plate test; details: 120 h, read-out: mortality in comparison with untreated controls (egg and larval mortality)
Protocol: For evaluating control of boll weevil (Anthonomus grandis) the test unit consisted of 96-well-microtiter plates containing an insect diet and 5-10 A. grandis eggs.
The compounds were formulated using a solution containing 75% v/v water and 25% v/v DMSO. Different concentrations of formulated compounds were sprayed onto the insect diet at 5 µl, using a custom built micro atomizer, at two replications.
After application, microtiter plates were incubated at about 25 + 1°C and about 75 + 5 % relative humidity for 5 days. Egg and larval mortality was then visually assessed.

Tetranychus kanzawai = test: Red spider mite (Tetranychus kanzawai) spray test on cowpea beans; details: topical, 72 h, read-out: mortality in comparison with untreated controls
Protocol: The active compound is dissolved at the desired concentration in a mixture of 1:1 (vol:vol) distilled water: acetone. Add surfactant (Kinetic) is added at a rate of 0.01% (vol/vol). The test solution is prepared at the day of use.
Potted cowpea beans of 4-5 days of age are cleaned with tap water and sprayed with 1-2 ml of the test solution using air driven DeVilbiss® hand atomizer at 20- 30 psi (≈ 1,38 to 2,07 bar). The treated plants are allowed to air dry and afterwards inoculated with 30 or more mites by clipping a cassava leaf section from rearing population. Treated plants are placed inside a holding room at about 25-26°C and about 65-70% relative humidity. Estimate percent mortality is assessed 72 hours after treatment.

Caenorhabditis elegans = Caenorhabditis elegans liquid diet microtiter plate test; details: 96 h, read-out: mortality in comparison with untreated controls (nematode motility (mortality))
Protocol: For evaluating control of Caenorhabditis elegans through contact or systemic means the test unit consisted of 96-well-microtiter plates containing a liquid diet.
The compounds or mixtures were formulated using a solution containing 75% water and 25% DMSO. Different concentrations of formulated compounds were sprayed into the microtiter plate wells at 5µl per well, using a custom built micro atomizer, at two replications. Mixed instar 60-100 C. elegans were transferred into the micro-titer plate wells. After application, the nematodes were incubated at 18 + 1°C, 70 + 5 % RH for 4 days. Nematode motility (mortality) was then visually assessed.

O=C(NCC1OCN(CC2CC2)C1=O)c1ccc(C2=NOC(c3cc(Cl)cc(C(F)(F)F)c3)(C(F)(F)F)C2)c2c1CCC2 (stereo not shown) [Compound I-3-4]
> 75%: mortality at 300 ppm (dichromothrips corbetti) | mortality at 2500 ppm (Aedes aegypti) | mortality at 2500 ppm (Myzus persicae) | mortality at 300 ppm (Plutella xylostella) | mortality at 2500 ppm (Megoura viciae) | mortality at 2500 ppm (Heliothis virescens) | mortality at 2500 ppm (Anthonomus grandis)

Cc1cc(C2=NOC(c3cc(Cl)cc(Cl)c3)(C(F)(F)F)C2)ccc1C(=O)NCC1OCN(CC2CC2)C1=O (stereo not shown) [Compound I-3-14]
> 75%: mortality at 300 ppm (dichromothrips corbetti) | mortality at 2500 ppm (Aedes aegypti) | mortality at 2500 ppm (Myzus persicae) | mortality at 300 ppm (Plutella xylostella) | mortality at 300 ppm (Tetranychus kanzawai) | mortality at 2500 ppm (Caenorhabditis elegans) | mortality at 2500 ppm (Megoura viciae) | mortality at 2500 ppm (Heliothis virescens) | mortality at 2500 ppm (Anthonomus grandis)

Cc1cc(C2=NOC(c3cc(Cl)cc(Cl)c3)(C(F)(F)F)C2)ccc1C(=O)NCC1OC(=O)N(CC2CC2)C1=O (stereo not shown) [Compound I-4-6]
> 75%: mortality at 300 ppm (dichromothrips corbetti) | mortality at 2500 ppm (Aedes aegypti) | mortality at 2500 ppm (Myzus persicae) | mortality at 300 ppm (Plutella xylostella) | mortality at 2500 ppm (Caenorhabditis elegans) | mortality at 2500 ppm (Megoura viciae) | mortality at 2500 ppm (Heliothis virescens) | mortality at 2500 ppm (Anthonomus grandis)

O=C(NCC1OC(=O)N(CC2CC2)C1=O)c1ccc(C2=NOC(c3cc(Cl)cc(Cl)c3)(C(F)(F)F)C2)cc1Cl (stereo not shown) [Compound I-4-3]
> 75%: mortality at 300 ppm (dichromothrips corbetti) | mortality at 2500 ppm (Aedes aegypti) | mortality at 2500 ppm (Myzus persicae) | mortality at 300 ppm (Plutella xylostella) | mortality at 2500 ppm (Caenorhabditis elegans) | mortality at 2500 ppm (Megoura viciae) | mortality at 2500 ppm (Heliothis virescens) | mortality at 2500 ppm (Anthonomus grandis)

Cc1cc(C2=NOC(c3cc(Cl)cc(Cl)c3)(C(F)(F)F)C2)ccc1C(=O)NCC1OC(=O)N(CC(F)(F)F)C1=O (stereo not shown) [Compound I-4-5]
> 75%: mortality at 300 ppm (dichromothrips corbetti) | mortality at 2500 ppm (Aedes aegypti) | mortality at 2500 ppm (Myzus persicae) | mortality at 300 ppm (Plutella xylostella) | mortality at 2500 ppm (Caenorhabditis elegans) | mortality at 2500 ppm (Megoura viciae) | mortality at 2500 ppm (Heliothis virescens) | mortality at 2500 ppm (Anthonomus grandis)

CN1C(=O)OC(CNC(=O)c2ccc(C3=NOC(c4cc(Cl)cc(Cl)c4)(C(F)(F)F)C3)cc2Cl)C1=O (stereo not shown) [Compound I-4-1, 2-chloro-4-[5-(3,5-dichlorophenyl)-5-(trifluoromethyl)-4H-isoxazol-3-yl]-N-[(3-methyl-2,4-dioxo-oxazolidin-5-yl)methyl]benzamide]
> 75%: mortality at 300 ppm (dichromothrips corbetti) | mortality at 2500 ppm (Myzus persicae) | mortality at 300 ppm (Plutella xylostella) | mortality at 2500 ppm (Caenorhabditis elegans) | mortality at 2500 ppm (Megoura viciae) | mortality at 2500 ppm (Heliothis virescens) | mortality at 2500 ppm (Anthonomus grandis)

O=C(NCC1OCN(CC(F)(F)F)C1=O)c1ccc(C2=NOC(c3cc(Cl)cc(Cl)c3)(C(F)(F)F)C2)cc1Cl (stereo not shown) [Compound I-3-9]
> 75%: mortality at 300 ppm (dichromothrips corbetti) | mortality at 2500 ppm (Aedes aegypti) | mortality at 2500 ppm (Myzus persicae) | mortality at 300 ppm (Plutella xylostella) | mortality at 2500 ppm (Caenorhabditis elegans) | mortality at 2500 ppm (Megoura viciae) | mortality at 2500 ppm (Heliothis virescens) | mortality at 2500 ppm (Anthonomus grandis)

O=C(NCC1OC(=O)N(CC(F)(F)F)C1=O)c1ccc(C2=NOC(c3cc(Cl)cc(Cl)c3)(C(F)(F)F)C2)cc1Cl (stereo not shown) [Compound I-4-2]
> 75%: mortality at 300 ppm (dichromothrips corbetti) | mortality at 2500 ppm (Aedes aegypti) | mortality at 2500 ppm (Myzus persicae) | mortality at 300 ppm (Plutella xylostella) | mortality at 2500 ppm (Caenorhabditis elegans) | mortality at 2500 ppm (Megoura viciae) | mortality at 2500 ppm (Heliothis virescens) | mortality at 2500 ppm (Anthonomus grandis)

CCN1COC(CNC(=O)c2ccc(C3=NOC(c4cc(Cl)cc(Cl)c4)(C(F)(F)F)C3)cc2Cl)C1=O (stereo not shown) [Compound I-3-8]
> 75%: mortality at 300 ppm (dichromothrips corbetti) | mortality at 2500 ppm (Aedes aegypti) | mortality at 2500 ppm (Myzus persicae) | mortality at 300 ppm (Plutella xylostella) | mortality at 2500 ppm (Caenorhabditis elegans) | mortality at 2500 ppm (Megoura viciae) | mortality at 2500 ppm (Heliothis virescens) | mortality at 2500 ppm (Anthonomus grandis)

O=C(NCC1OCN(CC2CC2)C1=O)c1ccc(C2=NOC(c3cc(Cl)cc(Cl)c3)(C(F)(F)F)C2)cc1Cl (stereo not shown) [Compound I-3-10]
> 75%: mortality at 300 ppm (dichromothrips corbetti) | mortality at 2500 ppm (Aedes aegypti) | mortality at 2500 ppm (Myzus persicae) | mortality at 300 ppm (Plutella xylostella) | mortality at 2500 ppm (Caenorhabditis elegans) | mortality at 2500 ppm (Heliothis virescens) | mortality at 2500 ppm (Anthonomus grandis)

Cc1cc(C2=NOC(c3cc(Cl)cc(Cl)c3)(C(F)(F)F)C2)ccc1C(=O)NCC1OC(=O)N(C)C1=O (stereo not shown) [Compound I-4-4]
> 75%: mortality at 300 ppm (dichromothrips corbetti) | mortality at 2500 ppm (Aedes aegypti) | mortality at 2500 ppm (Myzus persicae) | mortality at 300 ppm (Plutella xylostella) | mortality at 300 ppm (Tetranychus kanzawai) | mortality at 2500 ppm (Caenorhabditis elegans) | mortality at 2500 ppm (Megoura viciae) | mortality at 2500 ppm (Heliothis virescens) | mortality at 2500 ppm (Anthonomus grandis)

O=C(NCC1OCN(CC2CC2)C1=O)c1ccc(C2=NOC(c3cc(Cl)c(F)c(Cl)c3)(C(F)(F)F)C2)cc1Cl (stereo not shown) [Compound I-3-6]
> 75%: mortality at 300 ppm (dichromothrips corbetti) | mortality at 2500 ppm (Aedes aegypti) | mortality at 2500 ppm (Myzus persicae) | mortality at 300 ppm (Plutella xylostella) | mortality at 2500 ppm (Megoura viciae) | mortality at 2500 ppm (Heliothis virescens) | mortality at 2500 ppm (Anthonomus grandis)
